Experimental data published in PubChem BioAssay (NCI).
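GI50 marks 50% less growth. TGI: total growth inhibition.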

Columns and labels:
Test in all cases: inhibition of tumour cell growth, NCI panel, 384-well format
IGROV1 ovarian = test system: IGROV1 ovarian
NCI-H23 lung = test system: NCI-H23 lung
U251 glioblastoma = test system: U251 glioblastoma
M14 melanoma = test system: M14 melanoma
HT29 colon = test system: HT29 colon
SK-MEL-28 melanoma = test system: SK-MEL-28 melanoma
SW-620 colon = test system: SW-620 colon
SK-OV-3 ovarian = test system: SK-OV-3 ovarian
MDA-MB-435 melanoma = test system: MDA-MB-435 melanoma
HS 578T breast = test system: HS 578T breast
HCC-2998 colon = test system: HCC-2998 colon
LOX IMVI melanoma = test system: LOX IMVI melanoma
HL-60(TB) leukemia = test system: HL-60(TB) leukemia
ACHN renal = test system: ACHN renal
OVCAR-5 ovarian = test system: OVCAR-5 ovarian
NCI/ADR-RES ovarian = test system: NCI/ADR-RES ovarian
786-0 renal = test system: 786-0 renal
HOP-62 NSCLC = test system: HOP-62 NSCLC
SF-539 CNS = test system: SF-539 CNS
SK-MEL-5 melanoma = test system: SK-MEL-5 melanoma
BT-549 breast = test system: BT-549 breast
MOLT-4 leukemia = test system: MOLT-4 leukemia
T-47D breast = test system: T-47D breast
SF-295 CNS = test system: SF-295 CNS
MALME-3M melanoma = test system: MALME-3M melanoma
EKVX NSCLC = test system: EKVX NSCLC
A498 renal = test system: A498 renal
UACC-62 melanoma = test system: UACC-62 melanoma
MCF7 breast = test system: MCF7 breast
HOP-92 NSCLC = test system: HOP-92 NSCLC
PC-3 prostate = test system: PC-3 prostate
NCI-H226 lung = test system: NCI-H226 lung
MDA-MB-468 breast = test system: MDA-MB-468 breast
MDA-MB-231 breast = test system: MDA-MB-231 breast
COLO 205 colon = test system: COLO 205 colon
NCI-H322M lung = test system: NCI-H322M lung
DU-145 prostate = test system: DU-145 prostate
RPMI-8226 leukemia = test system: RPMI-8226 leukemia
UO-31 renal = test system: UO-31 renal
RXF 393 renal = test system: RXF 393 renal
SN12C renal = test system: SN12C renal
OVCAR-4 ovarian = test system: OVCAR-4 ovarian
KM12 colon = test system: KM12 colon
TK-10 renal = test system: TK-10 renal
SNB-75 CNS = test system: SNB-75 CNS
SR leukemia = test system: SR leukemia
NCI-H522 lung = test system: NCI-H522 lung
OVCAR-3 ovarian = test system: OVCAR-3 ovarian
K-562 leukemia = test system: K-562 leukemia
A549 NSCLC = test system: A549 NSCLC
CAKI-1 renal = test system: CAKI-1 renal
UACC-257 melanoma = test system: UACC-257 melanoma
SF-268 CNS = test system: SF-268 CNS
NCI-H460 NSCLC = test system: NCI-H460 NSCLC
CCRF-CEM leukemia = test system: CCRF-CEM leukemia
HCT-15 colon = test system: HCT-15 colon
SNB-19 CNS = test system: SNB-19 CNS
OVCAR-8 ovarian = test system: OVCAR-8 ovarian

SMILES: Cc1ccc(NC(=O)c2ccc(CN3CCN(C)CC3)cc2)cc1Nc1nc(-c2cccnc2)cs1
- GI50 (IGROV1 ovarian): 11.2 µM
- TGI (IGROV1 ovarian): 23.3 µM
- GI50 (NCI-H23 lung): 2.9 µM
- TGI (NCI-H23 lung): 11.9 µM
- GI50 (U251 glioblastoma): 2.36 µM
- TGI (U251 glioblastoma): 5.39 µM
- GI50 (M14 melanoma): 2.07 µM
- TGI (M14 melanoma): 4.11 µM
- GI50 (HT29 colon): 1.72 µM
- TGI (HT29 colon): 3.32 µM
- GI50 (SK-MEL-28 melanoma): 1.91 µM
- TGI (SK-MEL-28 melanoma): 3.42 µM
- GI50 (SW-620 colon): 2.17 µM
- TGI (SW-620 colon): 5.13 µM
- GI50 (SK-OV-3 ovarian): 3.89 µM
- TGI (SK-OV-3 ovarian): 12.3 µM
- GI50 (MDA-MB-435 melanoma): 6.47 µM
- TGI (MDA-MB-435 melanoma): 18.9 µM
- GI50 (HS 578T breast): 1.73 µM
- TGI (HS 578T breast): 3.87 µM
- GI50 (HCC-2998 colon): 1.84 µM
- TGI (HCC-2998 colon): 3.68 µM
- GI50 (LOX IMVI melanoma): 1.91 µM
- TGI (LOX IMVI melanoma): 3.52 µM
- GI50 (HL-60(TB) leukemia): 1.74 µM
- TGI (HL-60(TB) leukemia): 3.16 µM
- GI50 (ACHN renal): 3.31 µM
- TGI (ACHN renal): 9.96 µM
- GI50 (OVCAR-5 ovarian): 3.4 µM
- TGI (OVCAR-5 ovarian): 9.15 µM
- GI50 (NCI/ADR-RES ovarian): 5.47 µM
- TGI (NCI/ADR-RES ovarian): 16.6 µM
- GI50 ([…]-0 renal): 1.79 µM
- TGI (786-0 renal): 3.66 µM
- GI50 (HOP-62 NSCLC): 4.31 µM
- TGI (HOP-62 NSCLC): 15.4 µM
- GI50 (SF-539 CNS): 1.5 µM
- TGI (SF-539 CNS): 3.19 µM
- GI50 (SK-MEL-5 melanoma): 1.55 µM
- TGI (SK-MEL-5 melanoma): 3.15 µM
- GI50 (BT-549 breast): 4.12 µM
- TGI (BT-549 breast): 14.4 µM
- GI50 (MOLT-4 leukemia): 1.55 µM
- TGI (MOLT-4 leukemia): 2.95 µM
- GI50 (T-47D breast): 1.76 µM
- TGI (T-47D breast): 5.2 µM
- GI50 (SF-295 CNS): 1.84 µM
- TGI (SF-295 CNS): 3.32 µM
- GI50 (MALME-3M melanoma): 1.64 µM
- TGI (MALME-3M melanoma): 3.16 µM
- GI50 (EKVX NSCLC): 4.22 µM
- TGI (EKVX NSCLC): 15.4 µM
- GI50 (A498 renal): 2.42 µM
- TGI (A498 renal): 5.52 µM
- GI50 (UACC-62 melanoma): 1.75 µM
- TGI (UACC-62 melanoma): 3.64 µM
- GI50 (MCF7 breast): 1.94 µM
- TGI (MCF7 breast): 5.95 µM
- GI50 (HOP-92 NSCLC): 3.33 µM
- TGI (HOP-92 NSCLC): 12.2 µM
- GI50 (PC-3 prostate): 3.25 µM
- TGI (PC-3 prostate): 9.72 µM
- GI50 (NCI-H226 lung): 3.84 µM
- TGI (NCI-H226 lung): 15.9 µM
- GI50 (MDA-MB-468 breast): 1.65 µM
- TGI (MDA-MB-468 breast): 3.77 µM
- GI50 (MDA-MB-231 breast): 3.38 µM
- TGI (MDA-MB-231 breast): 11.7 µM
- GI50 (COLO 205 colon): 3.64 µM
- TGI (COLO 205 colon): 11 µM
- GI50 (NCI-H322M lung): 3.39 µM
- TGI (NCI-H322M lung): 11.4 µM
- GI50 (DU-145 prostate): 12 µM
- TGI (DU-145 prostate): 24.4 µM
- GI50 (RPMI-8226 leukemia): 1.42 µM
- TGI (RPMI-8226 leukemia): 2.78 µM
- GI50 (UO-31 renal): 5.43 µM
- TGI (UO-31 renal): 17.4 µM
- GI50 (RXF 393 renal): 1.54 µM
- TGI (RXF 393 renal): 2.98 µM
- GI50 (SN12C renal): 12.7 µM
- TGI (SN12C renal): 25.3 µM
- GI50 (OVCAR-4 ovarian): 2.59 µM
- TGI (OVCAR-4 ovarian): 11.1 µM
- GI50 (KM12 colon): 3.11 µM
- TGI (KM12 colon): 10.3 µM
- GI50 (TK-10 renal): 12.2 µM
- TGI (TK-10 renal): 24.7 µM
- GI50 (SNB-75 CNS): 3.7 µM
- TGI (SNB-75 CNS): 12 µM
- GI50 (SR leukemia): 1.53 µM
- TGI (SR leukemia): 2.87 µM
- GI50 (NCI-H522 lung): 3.83 µM
- TGI (NCI-H522 lung): 13.9 µM
- GI50 (OVCAR-3 ovarian): 2.24 µM
- TGI (OVCAR-3 ovarian): 5.16 µM
- GI50 (K-562 leukemia): 0.283 µM
- TGI (K-562 leukemia): 1.12 µM
- GI50 (A549 NSCLC): 5.25 µM
- TGI (A549 NSCLC): 17.3 µM
- GI50 (CAKI-1 renal): 3.9 µM
- TGI (CAKI-1 renal): 13 µM
- GI50 (UACC-257 melanoma): 1.82 µM
- TGI (UACC-257 melanoma): 3.37 µM
- GI50 (SF-268 CNS): 4.08 µM
- TGI (SF-268 CNS): 14 µM
- GI50 (NCI-H460 NSCLC): 2.16 µM
- TGI (NCI-H460 NSCLC): 4.71 µM
- GI50 (CCRF-CEM leukemia): 1.54 µM
- TGI (CCRF-CEM leukemia): 3.09 µM
- GI50 (HCT-15 colon): 1.69 µM
- TGI (HCT-15 colon): 3.2 µM
- GI50 (SNB-19 CNS): 10.6 µM
- TGI (SNB-19 CNS): 22.5 µM
- GI50 (OVCAR-8 ovarian): 3.54 µM
- TGI (OVCAR-8 ovarian): 12.5 µM
